According to US9549556B2, “Macrocyclic picolinamides as fungicides” (DOW AGROSCIENCES LLC, priority 2013, dated 2017):
Read-outs that look alike come from different tables or passages of the source.

Key:
[1] = tested on: Puccinia triticina; experiment: Wheat brown rust (PUCCRT) disease control on wheat seedlings; type: in vivo; conditions: read-out: PUCCRT disease control rating (% Control); for pest or weed control at 100 ppm: high volume application; for pest or weed control at 121.5 g/ha: 121.5 g/H, low volume (track spray) application
[2] = tested on: Septoria tritici; experiment: Leaf blotch of wheat (SEPTTR) disease control on wheat seedlings; type: in vivo, Mycosphaerella graminicola (anamorph Septoria tritici); conditions: Zymoseptoria tritici, read-out: SEPTTR disease control rating (% Control); for pest or weed control at 100 ppm: high volume application; for pest or weed control at 121.5 g/ha: 121.5 g/H, low volume (track spray) application
Protocol: Evaluation of Fungicidal Activity: Leaf Blotch of Wheat (Mycosphaerella graminicola; Anamorph: Septoria tritici; Bayer Code […]) Technical grades of materials were dissolved in acetone, which were then mixed with nine volumes of water containing 110 ppm Triton X-100. The fungicide solutions were applied onto wheat seedlings using an automated booth sprayer to run-off. All sprayed plants were allowed to air dry prior to further handling. All fungicides were evaluated using the aforementioned method for their activity vs. all target diseases. Wheat leaf blotch and brown rust activity were also evaluated using track spray applications, in which case the fungicides were formulated as EC formulations, containing 0.1% Trycol 5941 in the spray solutions. Wheat plants (variety Yuma) were grown from seed in a greenhouse in 50% mineral soil/50% soil-less Metro mix until the first leaf was fully emerged, with 7-10 seedlings per pot. These plants were inoculated with an aqueous spore suspension of Septoria tritici either prior to or after fungicide treatments. After inoculation the plants were kept in 100% relative humidity (one day in a dark dew chamber followed by two to three days in a lighted dew chamber at 20° C.) to permit spores to germinate and infect the leaf. The plants were then transferred to a greenhouse set at 20° C. for disease to develop. When disease symptoms were fully expressed on the 1st leaves of untreated plants, infection levels were assessed on a scale of 0 to 100 percent disease severity. Percent disease control was calculated using the ratio of disease severity on treated plants relative to untreated plants.

SMILES	pest or weed control at 100 ppm ([1]; 24 h, 1DP (1 Day Protectant)) [%]	pest or weed control at 100 ppm ([1]; 72 h, 3DC (3 Day Curative)) [%]	pest or weed control at 100 ppm ([2]; 24 h, 1DP (1 Day Protectant)) [%]	pest or weed control at 100 ppm ([2]; 72 h, 3DC (3 Day Curative)) [%]	pest or weed control at 121.5 g/ha ([1]; 24 h, 1DP (1 Day Protectant)) [%]	pest or weed control at 121.5 g/ha ([1]; 72 h, 3DC (3 Day Curative)) [%]	pest or weed control at 121.5 g/ha ([2]; 24 h, 1DP (1 Day Protectant)) [%]	pest or weed control at 121.5 g/ha ([2]; 72 h, 3DC (3 Day Curative)) [%]
COc1ccnc(C(=O)N[C@H]2COC[C@H](OCC3CC3)[C@@H](Cc3ccccc3)[C@H](C)OC2=O)c1O [Compound 83]	> 70	> 70	> 70	> 70	–	–	–	–
COc1ccnc(C(=O)N[C@H]2COC[C@H](OCc3ccccc3)[C@@H](Cc3ccc(F)cc3)[C@H](C)OC2=O)c1OCOC(C)=O [Compound 30]	–	–	–	–	> 70	> 70	> 70	> 70
COc1ccnc(C(=O)N[C@H]2COC[C@H](Oc3ccccc3)[C@@H](Cc3ccccc3)[C@H](C)OC2=O)c1OCOC(C)=O [Compound 84]	–	–	–	–	> 70	> 70	> 70	> 70
CCCC[C@H]1[C@H](C)OC(=O)[C@@H](NC(=O)c2nccc(OC)c2O)COC[C@@H]1Oc1ccccc1 [Compound 45]	> 70	< 70	> 70	< 70	–	–	–	–
CCCC[C@H]1[C@H](C)OC(=O)[C@@H](NC(=O)c2nccc(OC)c2O)COC[C@@H]1OCc1ccccc1 [Compound 37]	> 70	> 70	> 70	> 70	–	–	–	–
COc1ccnc(C(=O)N[C@H]2COC[C@H](OCc3ccccc3)[C@@H](Cc3ccc(F)cc3)[C@H](C)OC2=O)c1O [Compound 38]	> 70	> 70	> 70	> 70	–	–	–	–
COc1ccnc(C(=O)N[C@H]2COC[C@H](OCC3CC3)[C@@H](Cc3ccccc3)[C@H](C)OC2=O)c1OCOC(C)=O [Compound 80]	> 70	> 70	> 70	> 70	> 70	> 70	> 70	> 70
CCCO[C@H]1COC[C@H](NC(=O)c2nccc(OC)c2O)C(=O)O[C@@H](C)[C@@H]1Cc1ccc(F)cc1 [Compound 17]	> 70	> 70	> 70	> 70	–	–	–	–
CCCO[C@H]1COC[C@H](NC(=O)c2nccc(OC)c2OCOC(C)=O)C(=O)O[C@@H](C)[C@@H]1Cc1ccc(F)cc1 [Compound 62]	–	–	–	–	> 70	> 70	> 70	> 70
COc1ccnc(C(=O)N[C@H]2COC[C@H](OCc3ccccc3)[C@@H](CCC(C)C)[C@H](C)OC2=O)c1OCOC(C)=O [Compound 14]	–	–	–	–	> 70	> 70	> 70	> 70
CCCO[C@H]1COC[C@H](NC(=O)c2nccc(OC)c2OC(C)=O)C(=O)O[C@@H](C)[C@@H]1Cc1ccc(F)cc1 [Compound 20]	–	–	–	–	> 70	> 70	> 70	> 70
COc1ccnc(C(=O)N[C@H]2COC[C@H](Oc3ccccc3)[C@@H](CCC(C)C)[C@H](C)OC2=O)c1OC(C)=O [Compound 47]	–	–	–	–	> 70	< 70	> 70	> 70
COc1ccnc(C(=O)N[C@H]2COC[C@H](OC(=O)C3CC3)[C@@H](Cc3ccc(F)cc3)[C@H](C)OC2=O)c1O [Compound 25]	> 70	> 70	> 70	> 70	–	–	–	–
COc1ccnc(C(=O)N[C@H]2COC[C@H](Oc3ccc(C)cc3)[C@@H](Cc3ccc(F)cc3)[C@H](C)OC2=O)c1OC(C)=O [Compound 10]	–	–	–	–	> 70	< 70	> 70	> 70
COc1ccnc(C(=O)N[C@H]2COC[C@H](Oc3ccc(C)cc3)[C@@H](Cc3ccc(F)cc3)[C@H](C)OC2=O)c1OCOC(C)=O [Compound 64]	–	–	–	–	> 70	< 70	> 70	> 70
COc1ccnc(C(=O)N[C@H]2COC[C@H](OC(=O)C3CC3)[C@@H](CCC(C)C)[C@H](C)OC2=O)c1OC(C)=O [Compound 68, (3S,7R,8S,9S)-3-(3-acetoxy-4-methoxypicolinamido)-8-isopentyl-9-methyl-2-oxo-1,5-dioxonan-7-yl cyclopropanecarboxylate]	–	–	–	–	> 70	> 70	< 70	> 70
CCCC[C@H]1[C@H](C)OC(=O)[C@@H](NC(=O)c2nccc(OC)c2OCOC(C)=O)COC[C@@H]1OCCCC(F)(F)F [Compound 48]	–	–	–	–	> 70	> 70	> 70	> 70
COc1ccnc(C(=O)N[C@H]2COC[C@H](OCC3CC3)[C@@H](Cc3ccc(F)cc3)[C@H](C)OC2=O)c1O [Compound 24]	> 70	> 70	> 70	> 70	–	–	–	–
COc1ccnc(C(=O)N[C@H]2COC[C@H](Oc3ccc(C)cc3)[C@@H](Cc3ccc(F)cc3)[C@H](C)OC2=O)c1O [Compound 23]	> 70	< 70	> 70	< 70	–	–	–	–
CCOCC(=O)OCOc1c(OC)ccnc1C(=O)N[C@H]1COC[C@H](OCOCc2ccccc2)[C@@H](Cc2ccccc2)[C@H](C)OC1=O [Compound 26]	> 70	> 70	> 70	> 70	–	–	–	–
CCCC[C@H]1[C@H](C)OC(=O)[C@@H](NC(=O)c2nccc(OC)c2OCOC(C)=O)COC[C@@H]1OC(=O)C(C)C [Compound 43]	–	–	–	–	> 70	> 70	< 70	> 70
COc1ccnc(C(=O)N[C@H]2COC[C@H](OC(=O)C3CC3)[C@@H](CCC(C)C)[C@H](C)OC2=O)c1O [Compound 36]	< 70	< 70	< 70	> 70	–	–	–	–
CCCC[C@H]1[C@H](C)OC(=O)[C@@H](NC(=O)c2nccc(OC)c2O)COC[C@@H]1OC(=O)C(C)C [Compound 58]	> 70	< 70	< 70	> 70	–	–	–	–
COc1ccnc(C(=O)N[C@H]2COC[C@H](OCC3CC3)[C@@H](Cc3ccc(F)cc3)[C@H](C)OC2=O)c1OCOC(C)=O [Compound 71]	–	–	–	–	> 70	> 70	> 70	> 70
COc1ccnc(C(=O)N[C@H]2COC[C@H](OCC3CC3)[C@@H](Cc3ccc(F)cc3)[C@H](C)OC2=O)c1OC(C)=O [Compound 28]	–	–	–	–	> 70	> 70	> 70	> 70
COc1ccnc(C(=O)N[C@H]2COC[C@H](OCC(C)C)[C@@H](Cc3ccccc3)[C@H](C)OC2=O)c1OCOC(C)=O [Compound 85]	> 70	> 70	< 70	> 70	> 70	> 70	> 70	> 70
COCCC(=O)Oc1c(OC)ccnc1C(=O)N[C@H]1COC[C@H](Oc2ccccc2)[C@@H](Cc2ccccc2)[C@H](C)OC1=O [Compound 73]	–	–	–	–	> 70	> 70	> 70	> 70
COc1ccnc(C(=O)N[C@H]2COC[C@H](OC(=O)C3CC3)[C@@H](Cc3ccc(F)cc3)[C@H](C)OC2=O)c1OCOC(C)=O [Compound 59]	–	–	–	–	> 70	> 70	> 70	> 70
